The numbers were not newly measured in patent publication US12649947B2, “Method of treatment using genetic predictors of a response to treatment with CRHR1 antagonists” (HMNC Holding GmbH, priority 2015, dated 2026), which cites them from elsewhere.

This data set has as its system mice overexpressing CRH in the forebrain.

For the compound `COCC(COC)Nc1nc(C)nc2c(-c3ccc(Cl)cc3Cl)c(C)nn12` [DMP696], the “effect on REM sleep enhancement” value is on record as “could reverse the REM enhancement”.
